# Results: PubChem BioAssay (NCI)
#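 The compound was tested at five concentrations on cells cultured in 96-well plates, with a 48-hour exposure period. GI50 is the concentration that inhibits growth by half. TGI marks complete inhibition of growth.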
# What was measured:
# Experiment in all cases: growth of human tumour cells (NCI), 48 h
# OVCAR-4 ovarian = system: OVCAR-4 ovarian
# A549 NSCLC = system: A549 NSCLC
# SK-MEL-2 melanoma = system: SK-MEL-2 melanoma
# HL-60(TB) leukemia = system: HL-60(TB) leukemia
# M14 melanoma = system: M14 melanoma
# UACC-62 melanoma = system: UACC-62 melanoma
# EKVX NSCLC = system: EKVX NSCLC
# NCI-H23 lung = system: NCI-H23 lung
# SN12C renal = system: SN12C renal
# SF-539 CNS = system: SF-539 CNS
# MDA-MB-435 = system: MDA-MB-435
# HS 578T breast = system: HS 578T breast
# U251 CNS = system: U251 CNS
# CCRF-CEM leukemia = system: CCRF-CEM leukemia
# SF-268 CNS = system: SF-268 CNS
# 786-0 renal = system: 786-0 renal
# NCI/ADR-RES ovarian = system: NCI/ADR-RES ovarian
# T-47D breast = system: T-47D breast
# NCI-H522 lung = system: NCI-H522 lung
# CAKI-1 renal = system: CAKI-1 renal
# SNB-19 CNS = system: SNB-19 CNS
# BT-549 breast = system: BT-549 breast
# SW-620 colon = system: SW-620 colon
# A498 renal = system: A498 renal
# TK-10 renal = system: TK-10 renal
# RXF 393 renal = system: RXF 393 renal
# MOLT-4 leukemia = system: MOLT-4 leukemia
# MDA-MB-231 breast = system: MDA-MB-231 breast
# HCT-116 colon = system: HCT-116 colon
# ACHN renal = system: ACHN renal
# UACC-257 melanoma = system: UACC-257 melanoma
# OVCAR-5 ovarian = system: OVCAR-5 ovarian
# MALME-3M melanoma = system: MALME-3M melanoma
# SF-295 CNS = system: SF-295 CNS
# HCT-15 colon = system: HCT-15 colon
# SK-OV-3 ovarian = system: SK-OV-3 ovarian
# SNB-75 CNS = system: SNB-75 CNS
# KM12 colon = system: KM12 colon
# UO-31 renal = system: UO-31 renal
# HT29 colon = system: HT29 colon
# PC-3 prostate = system: PC-3 prostate
# SK-MEL-28 melanoma = system: SK-MEL-28 melanoma
# COLO 205 colon = system: COLO 205 colon
# IGROV1 ovarian = system: IGROV1 ovarian
# RPMI-8226 leukemia = system: RPMI-8226 leukemia
# OVCAR-3 ovarian = system: OVCAR-3 ovarian
# LOX IMVI melanoma = system: LOX IMVI melanoma
# HOP-62 NSCLC = system: HOP-62 NSCLC
# NCI-H226 lung = system: NCI-H226 lung
# SK-MEL-5 melanoma = system: SK-MEL-5 melanoma
# K-562 leukemia = system: K-562 leukemia
# DU-145 prostate = system: DU-145 prostate
# NCI-H460 lung = system: NCI-H460 lung
# SR leukemia = system: SR leukemia
# MCF7 breast = system: MCF7 breast
# HCC-2998 colon = system: HCC-2998 colon
# OVCAR-8 ovarian = system: OVCAR-8 ovarian
# HOP-92 NSCLC = system: HOP-92 NSCLC
# MDA-N = system: MDA-N
structure (smiles),measurement,setting,value
O=c1oc2ccc(-c3ccc(F)cc3F)cc2c(=O)n1-c1cccc(C(F)(F)F)c1,GI50,OVCAR-4 ovarian,1670 nM
same,TGI,OVCAR-4 ovarian,13600 nM
same,GI50,A549 NSCLC,1750 nM
same,TGI,A549 NSCLC,34800 nM
same,GI50,SK-MEL-2 melanoma,550 nM
same,TGI,SK-MEL-2 melanoma,2850 nM
same,GI50,HL-60(TB) leukemia,1330 nM
same,TGI,HL-60(TB) leukemia,3890 nM
same,GI50,M14 melanoma,525 nM
same,TGI,M14 melanoma,4210 nM
same,GI50,UACC-62 melanoma,382 nM
same,TGI,UACC-62 melanoma,2790 nM
same,GI50,EKVX NSCLC,2160 nM
same,TGI,EKVX NSCLC,> 100000 nM
same,GI50,NCI-H23 lung,687 nM
same,TGI,NCI-H23 lung,3590 nM
same,GI50,SN12C renal,1000 nM
same,TGI,SN12C renal,10400 nM
same,GI50,SF-539 CNS,1410 nM
same,TGI,SF-539 CNS,6950 nM
same,GI50,MDA-MB-435,1440 nM
same,TGI,MDA-MB-435,8040 nM
same,GI50,HS 578T breast,1300 nM
same,TGI,HS 578T breast,7280 nM
same,GI50,U251 CNS,1730 nM
same,TGI,U251 CNS,12700 nM
same,GI50,CCRF-CEM leukemia,2420 nM
same,TGI,CCRF-CEM leukemia,7850 nM
same,GI50,SF-268 CNS,1230 nM
same,TGI,SF-268 CNS,8210 nM
same,GI50,786-0 renal,2470 nM
same,TGI,786-0 renal,6500 nM
same,GI50,NCI/ADR-RES ovarian,2200 nM
same,TGI,NCI/ADR-RES ovarian,8900 nM
same,GI50,T-47D breast,317 nM
same,TGI,T-47D breast,3290 nM
same,GI50,NCI-H522 lung,343 nM
same,TGI,NCI-H522 lung,5610 nM
same,GI50,CAKI-1 renal,1220 nM
same,TGI,CAKI-1 renal,5190 nM
same,GI50,SNB-19 CNS,1830 nM
same,TGI,SNB-19 CNS,> 100000 nM
same,GI50,BT-549 breast,605 nM
same,TGI,BT-549 breast,3700 nM
same,GI50,SW-620 colon,2640 nM
same,TGI,SW-620 colon,12800 nM
same,GI50,A498 renal,210 nM
same,TGI,A498 renal,888 nM
same,GI50,TK-10 renal,3520 nM
same,TGI,TK-10 renal,15800 nM
same,GI50,RXF 393 renal,1230 nM
same,TGI,RXF 393 renal,4140 nM
same,GI50,MOLT-4 leukemia,2150 nM
same,TGI,MOLT-4 leukemia,4970 nM
same,GI50,MDA-MB-231 breast,2080 nM
same,TGI,MDA-MB-231 breast,7370 nM
same,GI50,HCT-116 colon,1330 nM
same,TGI,HCT-116 colon,3450 nM
same,GI50,ACHN renal,2250 nM
same,TGI,ACHN renal,8370 nM
same,GI50,UACC-257 melanoma,274 nM
same,TGI,UACC-257 melanoma,3310 nM
same,GI50,OVCAR-5 ovarian,4110 nM
same,TGI,OVCAR-5 ovarian,> 100000 nM
same,GI50,MALME-3M melanoma,785 nM
same,TGI,MALME-3M melanoma,4740 nM
same,GI50,SF-295 CNS,1780 nM
same,TGI,SF-295 CNS,4140 nM
same,GI50,HCT-15 colon,1610 nM
same,TGI,HCT-15 colon,23400 nM
same,GI50,SK-OV-3 ovarian,1020 nM
same,TGI,SK-OV-3 ovarian,4540 nM
same,GI50,SNB-75 CNS,1330 nM
same,TGI,SNB-75 CNS,3780 nM
same,GI50,KM12 colon,2090 nM
same,TGI,KM12 colon,5630 nM
same,GI50,UO-31 renal,1380 nM
same,TGI,UO-31 renal,8220 nM
same,GI50,HT29 colon,3240 nM
same,TGI,HT29 colon,11700 nM
same,GI50,PC-3 prostate,2040 nM
same,TGI,PC-3 prostate,12400 nM
same,GI50,SK-MEL-28 melanoma,756 nM
same,TGI,SK-MEL-28 melanoma,6560 nM
same,GI50,COLO 205 colon,10400 nM
same,TGI,COLO 205 colon,24700 nM
same,GI50,IGROV1 ovarian,1660 nM
same,TGI,IGROV1 ovarian,22200 nM
same,GI50,RPMI-8226 leukemia,395 nM
same,TGI,RPMI-8226 leukemia,3260 nM
same,GI50,OVCAR-3 ovarian,784 nM
same,TGI,OVCAR-3 ovarian,12800 nM
same,GI50,LOX IMVI melanoma,1610 nM
same,TGI,LOX IMVI melanoma,5550 nM
same,GI50,HOP-62 NSCLC,1730 nM
same,TGI,HOP-62 NSCLC,4570 nM
same,GI50,NCI-H226 lung,1430 nM
same,TGI,NCI-H226 lung,5190 nM
same,GI50,SK-MEL-5 melanoma,440 nM
same,TGI,SK-MEL-5 melanoma,1710 nM
same,GI50,K-562 leukemia,1200 nM
same,TGI,K-562 leukemia,18200 nM
same,GI50,DU-145 prostate,2790 nM
same,TGI,DU-145 prostate,16400 nM
same,GI50,NCI-H460 lung,999 nM
same,TGI,NCI-H460 lung,10300 nM
same,GI50,SR leukemia,1310 nM
same,TGI,SR leukemia,6250 nM
same,GI50,MCF7 breast,3220 nM
same,TGI,MCF7 breast,> 100000 nM
same,GI50,HCC-2998 colon,2640 nM
same,TGI,HCC-2998 colon,7940 nM
same,GI50,OVCAR-8 ovarian,2050 nM
same,TGI,OVCAR-8 ovarian,> 100000 nM
same,GI50,HOP-92 NSCLC,172 nM
same,TGI,HOP-92 NSCLC,931 nM
CC1(C)CC(=O)C(C(CC(c2ccccc2)c2cc3c(cc2O)OCO3)C2=C(O)CC(C)(C)CC2=O)=C(O)C1 (stereo unspecified),TGI,OVCAR-4 ovarian,> 10000 nM
same,TGI,A549 NSCLC,> 10000 nM
same,TGI,M14 melanoma,> 10000 nM
same,TGI,EKVX NSCLC,> 10000 nM
same,TGI,NCI-H23 lung,> 10000 nM
same,TGI,SN12C renal,> 10000 nM
same,TGI,SF-539 CNS,> 10000 nM
same,TGI,MDA-MB-435,> 10000 nM
same,TGI,U251 CNS,> 10000 nM
same,TGI,SF-268 CNS,> 10000 nM
same,TGI,NCI/ADR-RES ovarian,> 10000 nM
same,TGI,CAKI-1 renal,> 10000 nM
same,TGI,SNB-19 CNS,> 10000 nM
same,TGI,SW-620 colon,> 10000 nM
same,TGI,MDA-N,> 10000 nM
same,TGI,A498 renal,> 10000 nM
same,TGI,TK-10 renal,> 10000 nM
same,TGI,RXF 393 renal,> 10000 nM
same,TGI,MDA-MB-231 breast,> 10000 nM
same,TGI,HCT-116 colon,> 10000 nM
same,TGI,ACHN renal,> 10000 nM
same,TGI,OVCAR-5 ovarian,> 10000 nM
same,TGI,SF-295 CNS,> 10000 nM
same,TGI,HCT-15 colon,> 10000 nM
same,TGI,SNB-75 CNS,> 10000 nM
same,TGI,KM12 colon,> 10000 nM
same,TGI,UO-31 renal,> 10000 nM
same,TGI,HT29 colon,> 10000 nM
same,TGI,PC-3 prostate,> 10000 nM
same,TGI,COLO 205 colon,> 10000 nM
same,TGI,IGROV1 ovarian,> 10000 nM
same,TGI,OVCAR-3 ovarian,> 10000 nM
same,TGI,NCI-H226 lung,> 10000 nM
same,TGI,SK-MEL-5 melanoma,> 10000 nM
same,TGI,DU-145 prostate,> 10000 nM
same,TGI,OVCAR-8 ovarian,> 10000 nM
same,TGI,HOP-92 NSCLC,> 10000 nM
COc1ccc2/c(=C/c3ccc(N(C)C)cc3)c3cc(-c4ccccc4)[n+](C)n3c2c1,TGI,OVCAR-4 ovarian,4190 nM
same,TGI,HL-60(TB) leukemia,106 nM
same,TGI,M14 melanoma,1160 nM
same,TGI,SN12C renal,1600 nM
same,TGI,U251 CNS,1270 nM
same,TGI,CCRF-CEM leukemia,5370 nM
same,TGI,SF-268 CNS,1190 nM
same,TGI,NCI/ADR-RES ovarian,> 100000 nM
same,TGI,T-47D breast,2770 nM
same,TGI,CAKI-1 renal,7770 nM
same,TGI,SNB-19 CNS,2200 nM
same,TGI,SW-620 colon,1470 nM
same,TGI,MDA-N,475 nM
same,TGI,TK-10 renal,1430 nM
same,TGI,MOLT-4 leukemia,931 nM
same,TGI,MDA-MB-231 breast,1660 nM
same,TGI,HCT-116 colon,1370 nM
same,TGI,ACHN renal,2390 nM
same,TGI,UACC-257 melanoma,888 nM
same,TGI,OVCAR-5 ovarian,1440 nM
same,TGI,MALME-3M melanoma,579 nM
same,TGI,SF-295 CNS,2510 nM
same,TGI,HCT-15 colon,3280 nM
same,TGI,SK-OV-3 ovarian,1680 nM
same,TGI,KM12 colon,1990 nM
same,TGI,UO-31 renal,5200 nM
same,TGI,HT29 colon,624 nM
same,TGI,PC-3 prostate,543 nM
same,TGI,COLO 205 colon,236 nM
same,TGI,RPMI-8226 leukemia,912 nM
same,TGI,HOP-62 NSCLC,2630 nM
same,TGI,SK-MEL-5 melanoma,292 nM
same,TGI,K-562 leukemia,1150 nM
same,TGI,DU-145 prostate,1770 nM
same,TGI,NCI-H460 lung,3560 nM
same,TGI,SR leukemia,962 nM
same,TGI,HCC-2998 colon,1080 nM
same,TGI,OVCAR-8 ovarian,731 nM
